Each structure is given as a SMILES string.

The target in the test is PDE9A (Homo sapiens (Human), UniProt O76083). Description: PDE9A inhibitory activity, fluorescence polarization assay (IMAP-FP screening express kit). Type of test: biochemical. The following applies: enzyme PDE9A 5 ng/ml, Fl-cGMP substrate 100 nM, room temperature 1 hour. The method, then: The inhibitory activity of the representative compounds according to the present invention against phosphodiesterase 9A was tested based on the polarization assay (IMAP-FP screening express kit) provided by MDS (MDS Analytical Technologies, Sunyvale, CA, USA). As a buffer solution, a reaction solution (a reaction solution containing 0.01% Tween 20 provided by MDS was diluted 5 times, then 5 mM DTT is added) and a polarization detection solution (binding solution A and B provided by MDS were mixed at a ratio of 3:1 and IMAP binding reagent 1/600 was added) were prepared. 100 μM of the substrate (Fl-cGMP substrate; MDS) and 3.6 μg/ml of the enzyme PDE9A (ab54113; abeam) were prepared. 3.6 μg/ml PDE9A and 100 μM substrate were diluted to 20 ng/ml (final reaction concentration: 5 ng/ml) and 400 nM (final reaction concentration: 100 nM), respectively. The buffer solution used for all dilution and preparation processes was 1× reaction solution with 1 mM DTT added, and the polarization detection solution was used to induce polarization at the end.
Sequence of PDE9A (O76083 whole entry): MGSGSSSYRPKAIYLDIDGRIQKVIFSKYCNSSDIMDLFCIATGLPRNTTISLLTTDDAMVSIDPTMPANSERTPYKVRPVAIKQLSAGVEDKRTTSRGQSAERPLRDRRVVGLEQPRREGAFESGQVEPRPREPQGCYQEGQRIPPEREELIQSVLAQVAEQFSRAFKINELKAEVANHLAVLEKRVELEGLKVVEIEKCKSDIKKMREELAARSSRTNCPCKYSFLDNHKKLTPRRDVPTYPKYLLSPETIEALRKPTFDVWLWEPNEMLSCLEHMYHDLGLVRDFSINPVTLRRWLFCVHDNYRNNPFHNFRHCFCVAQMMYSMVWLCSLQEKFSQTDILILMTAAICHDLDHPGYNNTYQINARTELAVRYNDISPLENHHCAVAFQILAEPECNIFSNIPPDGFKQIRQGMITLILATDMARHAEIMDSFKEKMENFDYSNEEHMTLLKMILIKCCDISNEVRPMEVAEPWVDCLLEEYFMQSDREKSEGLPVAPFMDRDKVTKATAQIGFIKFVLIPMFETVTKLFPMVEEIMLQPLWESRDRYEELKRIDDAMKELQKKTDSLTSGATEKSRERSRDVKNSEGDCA
The prepared samples were dispensed on black microplates (Multiwell 384 well plates, #3573, Corning Life Sciences, Lowell, MA, USA) using a 16-channel pipette (multi 16-channel, Finnpipette, Thermo Scientific, Essex, UK). The total reaction volume per well is 20 μl. At this time, 10 μl of 2% DMSO, 5 μl of substrate solution, and 5 μl of reaction solution were used as a negative control, and 10 μl of 2% DMSO, 5 μl of substrate solution, and 5 μl of PDE9A solution were used as a positive control. As the experimental group, 10 μl of the compound prepared in Example, 5 μl of the substrate solution, and 5 μl of the PDE9A solution were used. After pretreatment between the compound and the enzyme was performed for about […] before the enzyme-substrate reaction, 5 μl of cGMP was added to induce the enzyme reaction. During the reaction, each compound, enzyme, and substrate occupied 50%, 25%, and 25% of the total volume, respectively, and they were prepared at high concentrations of 2, 4, and 4 times, respectively, immediately before addition. After the enzymatic reaction, it was shaken lightly for 1 minute and the enzyme reaction was induced at room temperature for 1 hour. Then, 60 μl of a polarization detection solution prepared in advance was added to induce polarization.
Nanoparticles composed of trivalent metal ions are mixed in the fluorescence detection solution, which combines with phosphoric acid expose by enzymatic reaction to increase the molecular weight and induce polarization. After leaving for 2 hours at room temperature, the polarization (Fluorescence Polarization, FP) value was measured using a multilabel counter (Envision, PerkinElmer, Turku, Finland) (emission wavelength: P-535 nm, S-535 nm, excitation wavelength: 480 nm), and the result was expressed as an IC50 value, which is the concentration of the compound that inhibited PDE9A by 50% in vitro (Table 2).
For orientation: Polarisation of emitted light reports the rotation of a fluorescent probe.
Molecule `O=C(CSc1nc2c(cnn2-c2ccccc2)c(=O)[nH]1)Nc1nnc(-c2ccccc2)s1` [Example 25, N-(5-phenyl-1,3,4-thiadiazol-2-yl)-2-((4-oxo-1-phenyl-4,5-dihydro-1H-pyrazolo[3,4-d]pyrimidin-6-yl)thio)acetamide] returned an IC50 of 0.012 µM.
`O=C(CSc1nc2c(cnn2-c2ccccc2)c(=O)[nH]1)Nc1nnc(Br)s1` [Example 7, N-(5-bromo-1,3,4-thiadiazol-2-yl)-2-((4-oxo-1-phenyl-4,5-dihydro-1H-pyrazolo[3,4-d]pyrimidin-6-yl)thio)acetamide] returned an IC50 of 0.012 µM.
In the case of `CC(Sc1nc2c(cnn2C2CCC(F)(F)CC2)c(=O)[nH]1)C(=O)Nc1nnc(Br)s1` (stereo not shown) [Example 31, 2-((1-(4,4-difluorocyclohexyl)-4-oxo-4,5-dihydro-1H-pyrazolo[3,4-d]pyrimidin-6-yl)thio)-N-(5-bromo-1,3,4-thiadiazol-2-yl)propanamide], the IC50 turned out to be 0.0001 µM.
In turn, `CCc1nnc(NC(=O)CSc2nc3c(cnn3-c3ccccc3)c(=O)[nH]2)s1` [Example 5, N-(5-ethyl-1,3,4-thiadiazol-2-yl)-2-((4-oxo-1-phenyl-4,5-dihydro-1H-pyrazolo[3,4-d]pyrimidin-6-yl)thio)acetamide] showed an IC50 of 0.18 µM. Against the preceding molecule, the IC50 is about 1800-fold higher.
For `CCSc1nnc(NC(=O)CSc2nc3c(cnn3-c3ccc(F)cc3)c(=O)[nH]2)s1` [Example 16, N-(5-(ethylthio)-1,3,4-thiadiazol-2-yl)-2-((1-(4-fluorophenyl)-4-oxo-4,5-dihydro-1H-pyrazolo[3,4-d]pyrimidin-6-yl)thio)acetamide] the value was 0.027 µM.
For the molecule `CC(Sc1nc2c(cnn2C2CCOCC2)c(=O)[nH]1)C(=O)Nc1nnc(Br)s1` (stereo not shown) [Example 46, N-(5-bromo-1,3,4-thiadiazol-2-yl)-2-((4-oxo-1-(tetrahydro-2H-pyran-4-yl)-4,5-dihydro-1H-pyrazolo[3,4-d]pyrimidin-6-yl)thio)propanamide], inhibition was half-maximal at 0.0002 µM (IC50).
`O=C(CSc1nc2c(cnn2-c2ccccc2)c(=O)[nH]1)Nc1nnc(-c2ccc(F)cc2)s1` [Example 23, N-(5-(4-fluorophenyl)-1,3,4-thiadiazol-2-yl)-2-((4-oxo-1-phenyl-4,5-dihydro-1H-pyrazolo[3,4-d]pyrimidin-6-yl)thio)acetamide] showed a concentration for half-maximal inhibition (IC50) of 0.01 µM.
As for `O=C(CSc1nc2c(cnn2-c2ccccc2)c(=O)[nH]1)Nc1nnc(SCc2ccccc2)s1` [Example 6], inhibition was half-maximal at 0.014 µM (IC50).
For the molecule `Cc1ccc(CSc2nnc(NC(=O)CSc3nc4c(cnn4-c4ccccc4)c(=O)[nH]3)s2)cc1` [Example 9], inhibition was half-maximal at 0.015 µM (IC50).
Turning to `Cc1ccc(-c2nnc(NC(=O)C(C)Sc3nc4c(cnn4-c4ccccc4)c(=O)[nH]3)s2)cc1` (stereo not shown) [Example 20, 2-((4-oxo-1-phenyl-4,5-dihydro-1H-pyrazolo[3,4-d]pyrimidin-6-yl)thio)-N-(5-(p-tolyl)-1,3,4-thiadiazol-2-yl)propanamide], the IC50 amounted to 0.019 µM.
For `Cc1ccc(-c2nnc(NC(=O)CSc3nc4c(cnn4-c4ccccc4)c(=O)[nH]3)s2)cc1` [Example 24, 2-((4-oxo-1-phenyl-4,5-dihydro-1H-pyrazolo[3,4-d]pyrimidin-6-yl)thio)-N-(5-(p-tolyl)-1,3,4-thiadiazol-2-yl)acetamide] the value was 0.041 µM; for `CCSc1nnc(NC(=O)CSc2nc3c(cnn3-c3ccccc3)c(=O)[nH]2)s1` [Example 2, N-(5-(ethylthio)-1,3,4-thiadiazol-2-yl)-2-((4-oxo-1-phenyl-4,5-dihydro-1H-pyrazolo[3,4-d]pyrimidin-6-yl)thio)acetamide], 0.01 µM.
Molecule `O=C(CSc1nc2c(cnn2-c2ccccc2)c(=O)[nH]1)Nc1nnc(SCc2ccc(Cl)cc2)s1` [Example 8] had a concentration for half-maximal inhibition (IC50) of 0.019 µM. This IC50 lies about 1.9-fold higher than the previous one.
In turn, `CCSc1nnc(NC(=O)CSc2nc3c(cnn3C3CC3)c(=O)[nH]2)s1` [Example 40, N-(5-(ethylthio)-1,3,4-thiadiazol-2-yl)-2-((1-cyclopropyl-4-oxo-4,5-dihydro-1H-pyrazolo[3,4-d]pyrimidin-6-yl)thio)acetamide] yielded an IC50 of 0.039 µM.
The molecule `Cc1nnc(NC(=O)CSc2nc3c(cnn3-c3ccccc3)c(=O)[nH]2)s1` [Example 3, N-(5-methyl-1,3,4-thiadiazol-2-yl)-2-((4-oxo-1-phenyl-4,5-dihydro-1H-pyrazolo[3,4-d]pyrimidin-6-yl)thio)acetamide] displayed an IC50 of 0.34 µM.
`CC(Sc1nc2c(cnn2-c2ccccc2)c(=O)[nH]1)C(=O)Nc1nnc(Br)s1` (stereo not shown) [Example 12, N-(5-bromo-1,3,4-thiadiazol-2-yl)-2-((4-oxo-1-phenyl-4,5-dihydro-1H-pyrazolo[3,4-d]pyrimidin-6-yl)thio)propanamide] displayed an IC50 of 0.007 µM.
`O=C(CSc1nc2c(cnn2C2CCSCC2)c(=O)[nH]1)Nc1nnc(Cl)s1` [Example 39, N-(5-chloro-1,3,4-thiadiazol-2-yl)-2-((4-oxo-1-(tetrahydro-2H-thiopyran-4-yl)-4,5-dihydro-1H-pyrazolo[3,4-d]pyrimidin-6-yl)thio)acetamide] returned a concentration for half-maximal inhibition (IC50) of 0.001 µM. Against the preceding molecule, the IC50 is about 7-fold lower.
In turn, `CCSc1nnc(NC(=O)CSc2nc3c(cnn3C(C)C)c(=O)[nH]2)s1` [Example 37, N-(5-(ethylthio)-1,3,4-thiadiazol-2-yl)-2-((1-isopropyl-4-oxo-4,5-dihydro-1H-pyrazolo[3,4-d]pyrimidin-6-yl)thio)acetamide] showed an IC50 of 0.001 µM.
`O=C(CSc1nc2c(cnn2C2CC2)c(=O)[nH]1)Nc1nnc(Br)s1` [Example 41, N-(5-bromo-1,3,4-thiadiazol-2-yl)-2-((1-cyclopropyl-4-oxo-4,5-dihydro-1H-pyrazolo[3,4-d]pyrimidin-6-yl)thio)acetamide] registered a concentration for half-maximal inhibition (IC50) of 0.028 µM. This IC50 is about 28-fold higher than that of the molecule before.
`O=C(CSc1nc2c(cnn2C2CC2)c(=O)[nH]1)Nc1nnc(Cl)s1` [Example 44, N-(5-chloro-1,3,4-thiadiazol-2-yl)-2-((1-cyclopropyl-4-oxo-4,5-dihydro-1H-pyrazolo[3,4-d]pyrimidin-6-yl)thio)acetamide] yielded a 50% inhibitory concentration (IC50) of 0.036 µM.
`O=C(CSc1nc2c(cnn2-c2ccc(F)cc2)c(=O)[nH]1)Nc1nnc(Br)s1` [Example 17, N-(5-bromo-1,3,4-thiadiazol-2-yl)-2-((1-(4-fluorophenyl)-4-oxo-4,5-dihydro-1H-pyrazolo[3,4-d]pyrimidin-6-yl)thio)acetamide] showed an IC50 of 0.027 µM. The IC50 values of the last two molecules are within 1.5-fold of each other.
Take `CC(Sc1nc2c(cnn2C2CCOCC2)c(=O)[nH]1)C(=O)Nc1nnc(Cl)s1` (stereo not shown) [Example 47, N-(5-chloro-1,3,4-thiadiazol-2-yl)-2-((4-oxo-1-(tetrahydro-2H-pyran-4-yl)-4,5-dihydro-1H-pyrazolo[3,4-d]pyrimidin-6-yl)thio)propanamide]: half-maximal inhibition (IC50) required 0.0001 µM.

As usually defined, the IC50 is the point on the concentration scale where inhibition reaches its midpoint.

The record behind these values is patent publication US12187729B2, “Compounds having PDE9A inhibitory activity, and pharmaceutical uses thereof” (KOREA RESEARCH INSTITUTE OF CHEMICAL TECHNOLOGY, priority 2018, dated 2025).
